Assay results reported in the supplement of paper PMC11451515.

Test system: SEM cells
Assay: cell viability relative to DMSO control; higher = less cytotoxic
Conditions: 48 h
Summary of the method: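 Library compounds in DMSO were pin-dosed into 1536-well plates (5 μl) holding NOMO1 or SEM (500 cells/well) or P12-Ichikawa (1000 cells/well) leukemia cells, across an 11-point threefold series of 47 μM to 0.79 nM. Each cell line had been adapted for at least four passages in each medium. CellTiter-Glo One luminescence was read after 48 h at 37°C. Viability is the per-plate percentage relative to DMSO wells, with cell-free wells as background.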

[1] = HPLM + 10% dialyzed FBS, 0.000781 µM
[2] = HPLM + 10% dialyzed FBS, 0.00234 µM
[3] = HPLM + 10% dialyzed FBS, 0.00702 µM
[4] = HPLM + 10% dialyzed FBS, 0.0211 µM
[5] = HPLM + 10% dialyzed FBS, 0.0632 µM
[6] = HPLM + 10% dialyzed FBS, 0.19 µM
[7] = HPLM + 10% dialyzed FBS, 0.569 µM
[8] = HPLM + 10% dialyzed FBS, 1.71 µM
[9] = HPLM + 10% dialyzed FBS, 5.12 µM
[10] = HPLM + 10% dialyzed FBS, 15.4 µM
[11] = HPLM + 10% dialyzed FBS, 46.1 µM
[12] = RPMI 5 mM glucose + 10% FBS, 0.000781 µM
[13] = RPMI 5 mM glucose + 10% FBS, 0.00234 µM
[14] = RPMI 5 mM glucose + 10% FBS, 0.00702 µM
[15] = RPMI 5 mM glucose + 10% FBS, 0.0211 µM
[16] = RPMI 5 mM glucose + 10% FBS, 0.0632 µM
[17] = RPMI 5 mM glucose + 10% FBS, 0.19 µM
[18] = RPMI 5 mM glucose + 10% FBS, 0.569 µM
[19] = RPMI 5 mM glucose + 10% FBS, 1.71 µM
[20] = RPMI 5 mM glucose + 10% FBS, 5.12 µM
[21] = RPMI 5 mM glucose + 10% FBS, 15.4 µM
[22] = RPMI 5 mM glucose + 10% FBS, 46.1 µM
[23] = RPMI 5 mM glucose + 10% dialyzed FBS, 0.000781 µM
[24] = RPMI 5 mM glucose + 10% dialyzed FBS, 0.00234 µM
[25] = RPMI 5 mM glucose + 10% dialyzed FBS, 0.00702 µM
[26] = RPMI 5 mM glucose + 10% dialyzed FBS, 0.0211 µM
[27] = RPMI 5 mM glucose + 10% dialyzed FBS, 0.0632 µM
[28] = RPMI 5 mM glucose + 10% dialyzed FBS, 0.19 µM
[29] = RPMI 5 mM glucose + 10% dialyzed FBS, 0.569 µM
[30] = RPMI 5 mM glucose + 10% dialyzed FBS, 1.71 µM
[31] = RPMI 5 mM glucose + 10% dialyzed FBS, 5.12 µM
[32] = RPMI 5 mM glucose + 10% dialyzed FBS, 15.4 µM
[33] = RPMI 5 mM glucose + 10% dialyzed FBS, 46.1 µM

Compound | cell viability [1] [%] | cell viability [2] [%] | cell viability [3] [%] | cell viability [4] [%] | cell viability [5] [%] | cell viability [6] [%] | cell viability [7] [%] | cell viability [8] [%] | cell viability [9] [%] | cell viability [10] [%] | cell viability [11] [%] | cell viability [12] [%] | cell viability [13] [%] | cell viability [14] [%] | cell viability [15] [%] | cell viability [16] [%] | cell viability [17] [%] | cell viability [18] [%] | cell viability [19] [%] | cell viability [20] [%] | cell viability [21] [%] | cell viability [22] [%] | cell viability [23] [%] | cell viability [24] [%] | cell viability [25] [%] | cell viability [26] [%] | cell viability [27] [%] | cell viability [28] [%] | cell viability [29] [%] | cell viability [30] [%] | cell viability [31] [%] | cell viability [32] [%] | cell viability [33] [%]
CC(C)n1nc(-c2ccc3oc(N)nc3c2)c2c(N)ncnc21 | 87.7 | 73.7 | 63.3 | 56.4 | 44.5 | 38.5 | 31.8 | 29.9 | 23.7 | 18.6 | 3.79 | 106 | 101 | 70.3 | 62.4 | 59.3 | 42.4 | 38.3 | 29.1 | 25.1 | 4.15 | 3.72 | 78.2 | 78.8 | 70.9 | 54.8 | 52.6 | 44 | 39.7 | 36.1 | 28.6 | 15.8 | 4.72
Cn1cc(-c2ccc3nnc(C(F)(F)c4ccc5ncccc5c4)n3n2)cn1 | 103 | 117 | 115 | 99.6 | 111 | 108 | 113 | 106 | 106 | 95.4 | 82 | 123 | 115 | 120 | 112 | 126 | 132 | 126 | 123 | 114 | 121 | 81.5 | 96 | 114 | 104 | 102 | 105 | 111 | 98.6 | 97.2 | 94.8 | 90.5 | 67.2
[NH2][Pt]([NH2])([Cl])[Cl] | 93.8 | 96 | 94.5 | 95.2 | 107 | 99.4 | 92.2 | 89.6 | 79.1 | 70.9 | 62.1 | 82.9 | 105 | 101 | 93.2 | 102 | 98.8 | 118 | 71 | 70.9 | 65.1 | 52.4 | 85 | 85.3 | 88.1 | 89.5 | 86.8 | 97.8 | 88.1 | 74.3 | 65.9 | 55.3 | 51.8
Cc1nccn1CC1CCc2c(c3ccccc3n2C)C1=O (stereo not given) | 118 | 120 | 135 | 132 | 142 | 120 | 110 | 117 | 104 | 116 | 92 | 121 | 119 | 127 | 114 | 115 | 105 | 127 | 104 | 108 | 109 | 85.4 | – | – | – | – | – | – | – | – | – | – | –
CC(C)(C)C(=O)Oc1ccc([S+](=O)([O-])Nc2ccccc2C(=O)NCC(=O)O)cc1 | 107 | 106 | 111 | 109 | 116 | 122 | 74.3 | 58.9 | 123 | 128 | 124 | 95.5 | 93.9 | 88.9 | 92.8 | 104 | 107 | 95.1 | 48.8 | 91.6 | 96.7 | 90.4 | 106 | 99.3 | 104 | 123 | 94.6 | 116 | 93.7 | 50.6 | 98.8 | 109 | 124
COc1cc2nc(N3CCCN(C)CC3)nc(NC3CCN(Cc4ccccc4)CC3)c2cc1OC | 92.1 | 122 | 129 | 111 | 130 | 119 | 125 | 98.1 | 60.1 | 37.5 | 10.2 | 104 | 116 | 140 | 113 | 132 | 127 | 143 | 97.7 | 108 | 44.8 | 11.5 | 112 | 117 | 131 | 104 | 128 | 132 | 132 | 131 | 92.3 | 55.9 | 19.1
O=C(/C=C/c1c(C(=O)[O-])[nH]c2cc(Cl)cc(Cl)c12)Nc1ccccc1 | 89.9 | 120 | 122 | 122 | 127 | 114 | 123 | 132 | 124 | 115 | 73.1 | 110 | 113 | 106 | 102 | 118 | 112 | 121 | 122 | 129 | 118 | 65.1 | 95.9 | 103 | 110 | 119 | 104 | 125 | 101 | 121 | 128 | 118 | 60
O=C(/C=C/c1cccc([S+](=O)([O-])Nc2ccccc2)c1)NO | 113 | 119 | 122 | 129 | 124 | 75.6 | 58.4 | 26.4 | 12.2 | 8.53 | 8.48 | 106 | 150 | 124 | 120 | 118 | 81.1 | 53 | 26.7 | 10.6 | 8.84 | 8.83 | 95.9 | 123 | 120 | 113 | 128 | 83.6 | 52 | 20.9 | 9.84 | 8.65 | 8.77
N=C(N)NC(=O)c1nc(Cl)c(N)nc1N | 101 | 104 | 120 | 111 | 114 | 104 | 136 | 114 | 129 | 124 | 123 | 101 | 107 | 108 | 108 | 118 | 119 | 117 | 113 | 113 | 114 | 120 | 101 | 122 | 110 | 108 | 126 | 124 | 120 | 126 | 119 | 116 | 121
CCCCCCCc1ccc(CCc2cccc(O)c2C(=O)O)cc1 | – | – | – | – | – | – | – | – | – | – | – | 82.3 | 113 | 126 | 128 | 120 | 112 | 111 | 122 | 105 | 107 | 101 | 75.5 | 121 | 135 | 130 | 119 | 111 | 134 | 119 | 110 | 125 | 107
O=C1C[C@@H](c2ccc(O)cc2)Oc2cc(O)cc(O)c21 | 123 | 115 | 122 | 119 | 119 | 118 | 125 | 110 | 116 | 120 | 106 | 102 | 91.4 | 79.3 | 83.3 | 91.7 | 83 | 64.5 | 77.7 | 67.2 | 80.4 | 64 | 124 | 116 | 130 | 123 | 124 | 114 | 122 | 115 | 121 | 139 | 88.5
CCNC(=O)c1cc2c(-c3cc(OCCN4CCCC4)c(Cl)cc3Cl)nc(N)nc2s1 | 114 | 112 | 112 | 101 | 104 | 114 | 101 | 95.2 | 32.2 | 20.1 | 19.4 | 103 | 108 | 117 | 96.6 | 112 | 112 | 112 | 86.9 | 31.9 | 21.8 | 18.7 | 96.2 | 98.6 | 92.2 | 110 | 98.7 | 112 | 98 | 68.3 | 30.3 | 19.4 | 19.1
O=C(NC[C@H]1CN(c2ccc(N3CCOCC3=O)cc2)C(=O)O1)c1ccc(Cl)s1 | 89.8 | 107 | 104 | 107 | 104 | 103 | 125 | 108 | 116 | 134 | 118 | 103 | 113 | 120 | 114 | 102 | 117 | 129 | 109 | 117 | 123 | 115 | 109 | 105 | 118 | 98.9 | 116 | 132 | 120 | 129 | 136 | 134 | 122
COc1cc(C(C)=O)ccc1OCCCN1CCC(c2noc3cc(F)ccc23)CC1 | 110 | 112 | 118 | 95 | 99.3 | 124 | 123 | 123 | 122 | 128 | 88.7 | – | – | – | – | – | – | – | – | – | – | – | 113 | 121 | 137 | 135 | 115 | 142 | 160 | 135 | 158 | 138 | 106
CCN(CC)C(=S)SSC(=S)N(CC)CC | 99.8 | 99.4 | 115 | 108 | 102 | 85.6 | 55.2 | 40.4 | 4.49 | 3.73 | 2.19 | 74.9 | 74.3 | 78.7 | 79.2 | 73.5 | 55.6 | 48.6 | 32.9 | 2.66 | 1.26 | 0.625 | 87.8 | 97.9 | 97.2 | 103 | 99.3 | 76.6 | 44.3 | 33.5 | 3.67 | 2.09 | 1.26
c1cc(CN2CCCNCCNCCCNCC2)ccc1CN1CCCNCCNCCCNCC1 | 83.6 | 85.7 | 86.8 | 20.1 | 94.3 | 101 | 89.8 | 96.9 | 106 | 116 | 110 | 70.8 | 93.3 | 83.8 | 13.6 | 85.7 | 92.9 | 87.1 | 90.8 | 94.1 | 91.5 | 89 | 94.1 | 84.4 | 94.2 | 20 | 117 | 118 | 106 | 115 | 102 | 125 | 119
